# Laboratory results taken from patent US9822373B2, “Mutant cells for protein secretion and lignocellulose degradation” (The Regents of the University of California, priority 2011, dated 2017).
# System: Exoglucanase (Cellobiohydrolase I)
# Experiment: MuLac (4-Methylumbelliferyl β-D-cellobioside) exoglucanase activity of culture supernatant
# Assay type: cell-based, Neurospora crassa
# Conditions: for MuLac activity: triple β-glucosidase deletion
# Experimental: Strains were inoculated at an OD595 equal to 0.05 in 100 ml Vogel's salts with 1% (wt/vol) sucrose in a 250 ml Erlenmeyer flask and grown under constant light at 200 rpm for 24 hours. Cultures were then induced with 2% sucrose, 2% cellobiose, 1% sucrose/1% cellobiose, or 1% sucrose/1% Avicel®. Cultures continued to grow under constant light at 200 rpm for 5 days with supernatant collected at 1, 2, 3, 4 and 5 day. The collected supernatant was filtered through a 0.2 μm PES filter to remove biomass before being stored at −20° C. until all samples were collected. To visualize the secreted proteins, 15 μl of unconcentrated supernatant was run on a Criterion 10% Tris-HCL polyacrylamide gel and stained with Thermo Scientific GelCode Blue Stain Reagent.
# Exoglucanase (Cellobiohydrolase I) activity was measured using a 4-Methylumbelliferyl β-D-cellobioside (MuLac) assay. This assay mainly measures the activity of CBH-1 and activity is expressed as the change in fluorescence over time resulting in the slope of a best-fit line as an indication of enzyme activity. Prior to performing this assay, any excess sugars in the culture supernatant were removed by passing the supernatant over a 5,000 Dalton concentrator (sartorius stedim Vivaspin 500). Retained proteins were washed twice with 50 mM sodium acetate pH 5 and diluted to 2 μg/μl to assure that the assay remained in the linear range. […] The assay was performed in a Beckman Coulter Paradigm plate reader set at 40° C. with excitation/emission wavelengths of 360/465 nm with readings every 30 seconds for 10 minutes. The slope of the best-fit line represents the MuLac activity for an individual culture supernatant. The MuLac activity is normalized to the initial dilution required to obtain a 2 μg/μl concentration in order to represent the undiluted activity. The activity of recombinant cellobiohydrolase-1 was used as a standard and data is presented as a percentage of the wild type activity on Avicel® after 4 days.
smiles,measurement,setting,value
O=C[C@H](O)[C@@H](O)[C@H](O[C@@H]1O[C@H](CO)[C@@H](O)[C@H](O)[C@H]1O)[C@H](O)CO [cellobiose],MuLac activity,4 days,4.84 μg CBHI equivalent
same,MuLac activity,two days,1.4 μg recombinant CBHI
same,MuLac activity (CBHI equivalent produced),"triple β-glucosidase/Δcre-1 deletion strain, four days",more than 11 μg CBHI equivalent
same,activity towards MuLac,"Δcre-1, time not stated",0.8 µg
